Assay results reported in patent US20250170090A1, “METHOD FOR PREVENTING OR TREATING DISEASE OR DISORDER ASSOCIATED WITH ANTINEOPLASTIC AGENT” (ONQUALITY PHARMACEUTICALS CHINA LTD., priority 2022, published 2025).

Tests used:
[1] = test system: human oral keratinocytes (HOK); test: CCK-8 cell viability: alleviation of proliferative toxicity of anti-tumor agents on HOK (Table 8-2); assay type: cell-based; conditions: NO-NSAID 100 μM
Experimental: (§1) Experiments were conducted using various epithelial cells: Examples 47-51 used human immortalized keratinocytes (HaCaT) with corresponding results in Table 8-1; Examples 52-56 used human oral keratinocytes (HOK) with results in Table 8-2; Examples 57-61 used gastric epithelial cells (GES-1) with results in Table 8-3; Examples 62-66 used human intestinal epithelial cells (FHs 74 Int) with results in Table 8-4.
(§2) The cultured cells were digested the suspended, counted, and seed into a 96-well plate with 5,000-10,000 cells per well. The wells are divided into the following groups: blank control group, anti-tumor agent group, anti-tumor agent+NO-NSAID group, anti-tumor agent solvent group, NO-NSAID solvent control group. Wherein each well of each group contained a basic medium, and the final liquid volume contained in each well was about 100 μL. The grouping situation was as follows: • 1) Blank control group: no solution was added except normally replacing the medium; • 2) Anti-tumor agent group: added the anti-tumor agent solution (the final concentration was shown in Table 8-1 to Table 8-4, the solvent of the anti-tumor agent solution was DMSO); • 3) Anti-tumor agent+NO-NSAID group: added the anti-tumor agent solution and the NO-NSAID solution (the final concentrations of anti-tumor agent and NO-NSAID were shown in Table 8-1 to Table 8-4, and according to the solubility of NO-NSAID, the solvent of NO-NSAID solution was selected as ethanol or sterile water, and minor volume differences in each group were adjusted by added the corresponding solvent); • 4) Anti-tumor agent solvent group: an equal volume of DMSO as contained in the corresponding anti-tumor agent solution in Group 2) was added; • 5) NO-NSAID control group: the same volume and type of solvent (for example, ethanol or sterile water) corresponding to the NO-NSAID contained in group 3) was added.
(§3) The anti-tumor agent solvent group was not involved in data processing and was only used as a reference for evaluating experimental system error. The NO-NSAID solvent control group was used for data correction to eliminate the influence of the solvent on the results.
(§4) After culturing for 24-48 hours, the Cell Counting Kit-8 (CCK-8) detection kit (C0037, Shanghai Beyotime Biotechnology Co., Ltd., Beyotime Biotechnology) was used to determine the cell viability. This allows for the calculation of the proliferative toxicity of anti-tumor agent on cell and the mitigating effect of NO-NSAID on proliferative toxicity. The results were statistically analyzed and plotted using GraphPad Prism 6.0 software and t test.

[2] = test system: chemotherapy-induced hand-foot syndrome; test: Prevention of chemotherapy-induced hand-foot syndrome in rat models (Table 5); assay type: in vivo, SD rats
Experimental: Rat animal model was constructed. After several days, the rats develop hand-foot syndrome in their paws. After one week of acclimatization (about 200 g), the SD rats are divided into groups of 10 rats each, followed by gavage administration experiment. The chemotherapy drugs were dissolved, and each rat was given a gavage dose of 1 mL/100 g. After gavage, the rats were fixed with a fixed cylinder. NO-NSAID ointment was applied to the paws of the rats in the medication group, and blank ointment was applied to the paws of the rats in the blank group (as blank control). […] Table 5 lists the animal experimental combinations of chemotherapy drugs and NO-NSAID ointment, as well as the corresponding experimental results (where the value in the control rate column=the incidence rate of hand-foot syndrome in the blank group−the incidence rate of hand-foot syndrome in the treatment group).

[3] = test system: human immortalized keratinocytes (HaCaT); test: CCK-8 cell viability: alleviation of proliferative toxicity of anti-tumor agents on HaCaT (Table 8-1); assay type: cell-based; conditions: NO-NSAID 100 μM, percentage increase in viable cells vs anti-tumor agent alone
Experimental: as §1, §2, §3, §4

[4] = test system: hand-foot syndrome caused by anti-tumor agents; test: Treatment of established hand-foot syndrome caused by anti-tumor agents in rats (Table 4); assay type: in vivo
Experimental: After the rats (about 200 g) were fed and adapted for one week, the rats were divided into groups of 10 rats for gavage administration experiment. The anti-tumor agent was dissolved in a mixed solution of Cremophor EL:ethanol=1:1, and diluted with PBS to the required concentration (diluted about 3 times with PBS solution) before gavage. […] Specific experimental procedures followed those outlined in the prevention experiment. […] Table 4 lists the animal experiments using various anti-tumor agents and NO-NSAID ointment, as well as the corresponding experimental results (where the value in the control rate column=the incidence rate of hand-foot syndrome in the blank group−the incidence rate of hand-foot syndrome in the treatment group).

[5] = test system: hand-foot syndrome caused by macromolecular anti-tumor agents; test: Prevention of hand-foot syndrome caused by macromolecular protein inhibitors in rats (Table 3); assay type: in vivo
[6] = test system: human intestinal epithelial cells (FHs 74 Int); test: CCK-8 cell viability: alleviation of proliferative toxicity of anti-tumor agents on FHs 74 Int (Table 8-4); assay type: cell-based; conditions: NO-NSAID 100 μM
Experimental: as §1, §2, §3, §4

[7] = test system: gastric epithelial cells (GES-1); test: CCK-8 cell viability: alleviation of proliferative toxicity of anti-tumor agents on GES-1 (Table 8-3); assay type: cell-based, human; conditions: NO-NSAID 100 μM
Experimental: as §1, §2, §3, §4

[8] = Regorafenib 90 mg/kg once every two days, ointment 1% wt, Days 7

CC(=O)Oc1ccccc1C(=O)Oc1cccc(CO[N+](=O)[O-])c1 [Compound A2]
Response rate % (average) ([1]; Afatinib (10 μM)): 24% | Response rate % (average) ([1]; Cabozantinib (5 μM)): 22% | Response rate % (average) ([1]; Dabrafenib (10 μM)): 22% | Response rate % (average) ([1]; Everolimus (5 μM)): 8% | Response rate % (average) ([1]; Infigratinib (15 μM)): 21% | Response rate % (average) ([1]; Lapatinib (5 μM)): −8% | Response rate % (average) ([1]; Lenvatinib (10 μM)): 19% | Response rate % (average) ([1]; Olmutinib (10 μM)): 32% | Response rate % (average) ([1]; Regorafenib (5 μM)): 3% | Response rate % (average) ([1]; Selumetinib (5 μM)): 13% | Response rate % (average) ([1]; Sorafenib (5 μM)): 31% | Response rate % (average) ([1]; Sunitinib (5 μM)): 27% | Control rate ([2]; Acelarin 130 mg/kg twice a week, ointment 1% wt, Days 30): 28.57% | Control rate ([2]; Capecitabine 4000 mg/kg once a day, ointment 2% wt, Days 40): 22.22% | Control rate ([2]; Capecitabine 4000 mg/kg once a day, ointment 5% wt, Days 40): 28.57% | Control rate ([2]; Capecitabine 4000 mg/kg once a day, ointment 10% wt, Days 40): 33.33% | Control rate ([2]; Cytarabine 120 mg/kg twice a day, ointment 2% wt, Days 30): 14.29% | Control rate ([2]; Cytarabine 120 mg/kg twice a day, ointment 5% wt, Days 30): 42.86% | Response rate % (average) ([3]; Afatinib (10 μM)): 20% | Response rate % (average) ([3]; Cabozantinib (5 μM)): 36% | Response rate % (average) ([3]; Dabrafenib (10 μM)): 21% | Response rate % (average) ([3]; Everolimus (5 μM)): 7% | Response rate % (average) ([3]; Infigratinib (15 μM)): 16% | Response rate % (average) ([3]; Lapatinib (5 μM)): 18% | Response rate % (average) ([3]; Lenvatinib (10 μM)): 1% | Response rate % (average) ([3]; Olmutinib (10 μM)): 34% | Response rate % (average) ([3]; Regorafenib (5 μM)): 26% | Response rate % (average) ([3]; Selumetinib (5 μM)): 18% | Response rate % (average) ([3]; Sorafenib (5 μM)): 33% | Response rate % (average) ([3]; Sunitinib (5 μM)): 31% | Response rate ([4]; Apatinib 105 mg/kg once every two days, ointment 3% wt, Days 7): 33.33% | Response rate ([4]; Cabozantinib 50 mg/kg once every two days, ointment 1% wt, Days 13): 14.29% | Response rate ([4]; Erdafitinib 45 mg/kg once every two days, ointment 3% wt, Days 13): 28.57% | Response rate ([4]; Fruquintinib 40 mg/kg once every two days, ointment 3% wt, Days 8): 50.00% | Response rate ([4]; Lenvatinib 65 mg/kg once a day, ointment 3% wt, Days 9): 33.33% | Response rate [4, 8]: 33.33% | Response rate ([4]; Sorafenib 80 mg/kg once every two days, ointment 2.00% wt, Days 5): 20.00% | Response rate ([4]; Sunitinib 120 mg/kg once every two days, ointment 3% wt, Days 7): 33.33% | Control rate ([5]; Bevacizumab, 5-FU combination, tail vein injection once a week, ointment 1% wt, Days 18): 33.33% | Control rate ([5]; Bevacizumab, 5-FU combination, tail vein injection once a week, ointment 5% wt, Days 18): 50.00% | Control rate ([5]; Ramucirumab combined with paclitaxel, intraperitoneal injection once a week, ointment 1% wt, Days 23): 33.33% | Control rate ([5]; Ramucirumab combined with paclitaxel, intraperitoneal injection once a week, ointment 5% wt, Days 23): 66.67% | Response rate % (average) ([6]; Afatinib (10 μM)): 22% | Response rate % (average) ([6]; Cabozantinib (5 μM)): 26% | Response rate % (average) ([6]; Dabrafenib (10 μM)): 13% | Response rate % (average) ([6]; Everolimus (5 μM)): 27% | Response rate % (average) ([6]; Infigratinib (15 μM)): 20% | Response rate % (average) ([6]; Lapatinib (5 μM)): 20% | Response rate % (average) ([6]; Lenvatinib (10 μM)): 26% | Response rate % (average) ([6]; Olmutinib (10 μM)): 25% | Response rate % (average) ([6]; Regorafenib (5 μM)): 21% | Response rate % (average) ([6]; Selumetinib (5 μM)): 27% | Response rate % (average) ([6]; Sorafenib (5 μM)): 26% | Response rate % (average) ([6]; Sunitinib (5 μM)): 36% | Response rate % (average) ([7]; Afatinib (10 μM)): 3% | Response rate % (average) ([7]; Cabozantinib (5 μM)): 27% | Response rate % (average) ([7]; Dabrafenib (10 μM)): 25% | Response rate % (average) ([7]; Everolimus (5 μM)): 31% | Response rate % (average) ([7]; Infigratinib (15 μM)): 39% | Response rate % (average) ([7]; Lapatinib (5 μM)): 16% | Response rate % (average) ([7]; Lenvatinib (10 μM)): 23% | Response rate % (average) ([7]; Olmutinib (10 μM)): 30% | Response rate % (average) ([7]; Regorafenib (5 μM)): 18% | Response rate % (average) ([7]; Selumetinib (5 μM)): 17% | Response rate % (average) ([7]; Sorafenib (5 μM)): 24% | Response rate % (average) ([7]; Sunitinib (5 μM)): 18%

CC(=O)Oc1ccccc1C(=O)OCOC(=O)CCCCCO[N+](=O)[O-] [Compound A3]
Response rate % (average) ([1]; Afatinib (10 μM)): 27% | Response rate % (average) ([1]; Cabozantinib (5 μM)): 8% | Response rate % (average) ([1]; Dabrafenib (10 μM)): 4% | Response rate % (average) ([1]; Everolimus (5 μM)): −8% | Response rate % (average) ([1]; Infigratinib (15 μM)): 7% | Response rate % (average) ([1]; Lapatinib (5 μM)): −4% | Response rate % (average) ([1]; Lenvatinib (10 μM)): 18% | Response rate % (average) ([1]; Olmutinib (10 μM)): 35% | Response rate % (average) ([1]; Regorafenib (5 μM)): 12% | Response rate % (average) ([1]; Selumetinib (5 μM)): 16% | Response rate % (average) ([1]; Sorafenib (5 μM)): 30% | Response rate % (average) ([1]; Sunitinib (5 μM)): 14% | Control rate ([2]; Capecitabine 4000 mg/kg once a day, ointment 1% wt, Days 40): 28.57% | Control rate ([2]; Capecitabine 4000 mg/kg once a day, ointment 3% wt, Days 40): 37.50% | Response rate % (average) ([3]; Afatinib (10 μM)): 24% | Response rate % (average) ([3]; Cabozantinib (5 μM)): 24% | Response rate % (average) ([3]; Dabrafenib (10 μM)): 3% | Response rate % (average) ([3]; Everolimus (5 μM)): −10% | Response rate % (average) ([3]; Infigratinib (15 μM)): 1% | Response rate % (average) ([3]; Lapatinib (5 μM)): 22% | Response rate % (average) ([3]; Lenvatinib (10 μM)): 0% | Response rate % (average) ([3]; Olmutinib (10 μM)): 37% | Response rate % (average) ([3]; Regorafenib (5 μM)): 33% | Response rate % (average) ([3]; Selumetinib (5 μM)): 20% | Response rate % (average) ([3]; Sorafenib (5 μM)): 33% | Response rate % (average) ([3]; Sunitinib (5 μM)): 19% | Response rate [4, 8]: 33.33% | Response rate ([4]; Sorafenib 80 mg/kg once every two days, ointment 3% wt, Days 7): 42.86% | Response rate % (average) ([6]; Afatinib (10 μM)): 26% | Response rate % (average) ([6]; Cabozantinib (5 μM)): 13% | Response rate % (average) ([6]; Dabrafenib (10 μM)): −8% | Response rate % (average) ([6]; Everolimus (5 μM)): 14% | Response rate % (average) ([6]; Infigratinib (15 μM)): 6% | Response rate % (average) ([6]; Lapatinib (5 μM)): 23% | Response rate % (average) ([6]; Lenvatinib (10 μM)): 25% | Response rate % (average) ([6]; Olmutinib (10 μM)): 29% | Response rate % (average) ([6]; Regorafenib (5 μM)): 29% | Response rate % (average) ([6]; Selumetinib (5 μM)): 29% | Response rate % (average) ([6]; Sorafenib (5 μM)): 26% | Response rate % (average) ([6]; Sunitinib (5 μM)): 25% | Response rate % (average) ([7]; Afatinib (10 μM)): 7% | Response rate % (average) ([7]; Cabozantinib (5 μM)): 14% | Response rate % (average) ([7]; Dabrafenib (10 μM)): 7% | Response rate % (average) ([7]; Everolimus (5 μM)): 19% | Response rate % (average) ([7]; Infigratinib (15 μM)): 28% | Response rate % (average) ([7]; Lapatinib (5 μM)): 20% | Response rate % (average) ([7]; Lenvatinib (10 μM)): 22% | Response rate % (average) ([7]; Olmutinib (10 μM)): 33% | Response rate % (average) ([7]; Regorafenib (5 μM)): 26% | Response rate % (average) ([7]; Selumetinib (5 μM)): 19% | Response rate % (average) ([7]; Sorafenib (5 μM)): 24% | Response rate % (average) ([7]; Sunitinib (5 μM)): 4%
